# From patent publication US9486422B2, “Small molecule inhibitors of Mcl-1 and the uses of thereof” (THE REGENTS OF THE UNIVERSITY OF MICHIGAN, priority 2011, dated 2016)
# Columns and labels:
# MiaPaCa-2 = assay: Cell growth inhibition (WST-8), MiaPaCa-2; type: cell-based; conditions: Homo sapiens, MIA PaCa-2, 96 h; 4 days treatment
# Description: Human PC cell lines AsPC-1, BxPC-3 and Capan-2 were cultured in RPMI 1640 medium, while Panc-1 and MiaPaCa were cultured in DMEM medium (Life Technologies), all supplemented with 10% fetal bovine serum (Thermo Scientific HyClone). The rate of cell growth inhibition after treatment with increasing concentrations of the tested compounds was determined by WST-8 assay as described in the manufacturers protocol (Dojindo Molecular Technologies Inc.).
# BxPC-3 xenograft = BxPC-3 xenograft efficacy in SCID mice; type: in vivo; conditions: 60 mg/kg i.v., 5 days a week for two weeks
# Description: For BxPC-3 subcutaneous model, 10×10^6 cells were subcutaneously injected into the flanks of 4-5 week old female severe combined immune deficient mice (ICR-SCID) (Taconic Farms) using 26 G ½ Precision Glide needles (Becton Dickinson). […] Tumors were measured twice weekly using a caliper and expressed in mg. To prevent any pain or discomfort, mice were euthanized and their tumors removed once they reached ˜1800 mg burden. […] Tumor weight was recorded throughout the treatment period using previously described methods.
# [1] = system: activated Bax in Panc-1 cells; assay: Bax activation, 6A7 anti-Bax immunostaining, Panc-1; type: cell-based, human; conditions: 24 h
# Description: (§1) Cells mounted on glass slides were permeabilized with PBS containing 0.3% Triton X-100, and blocked with 1% bovine serum albumin in PBS for 30 min at room temperature, followed with overnight incubation with anti-Bak 6A7 (Calbiochem) at 4° C. After thorough washing of the sections in PBS, a secondary antibody labeled with DyLight 488 (Thermo Scientific) was added and incubated for 2 h at room temperature. Nuclei were visualized with DAPI. Samples were analyzed with a FluoView 500 Confocal Laser Scanning Microscope (Olympus).
# Bcl-2 [2] = assay: FP-based binding assay, Bcl-2
# Bcl-2 [3] = target: T1, Bcl-2 (Homo sapiens, UniProt P10415); assay: FP-based binding assay, Bcl-2; conditions: read-out: Bcl-2 Ki ± SD
# T1 construct: His-tagged proteins containing; fused on or other part: A 16-residue segment of the flexible loop of Bcl-xL (BCL2L1, Q07817; given as residues 35 to 50) set into the Bcl-2 loop region; His tag with TEV site from the pHis-TEV vector
# T1 sequence (P10415 with tags, fused parts or gaps with the stated changes): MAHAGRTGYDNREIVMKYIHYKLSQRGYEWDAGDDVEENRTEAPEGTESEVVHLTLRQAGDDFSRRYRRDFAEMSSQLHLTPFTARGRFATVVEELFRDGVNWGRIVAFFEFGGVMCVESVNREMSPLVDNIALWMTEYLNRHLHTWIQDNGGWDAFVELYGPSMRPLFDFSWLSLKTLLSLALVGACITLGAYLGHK
# Bcl-w = target: T2, Bcl-w (Homo sapiens, UniProt Q92843); assay: FP-based binding assay, Bcl-w
# T2 sequence (Q92843 1-155): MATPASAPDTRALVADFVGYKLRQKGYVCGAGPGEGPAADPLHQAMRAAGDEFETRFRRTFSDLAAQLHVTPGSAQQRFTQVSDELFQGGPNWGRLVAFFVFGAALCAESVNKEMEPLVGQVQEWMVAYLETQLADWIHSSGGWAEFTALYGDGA
# [4] = target: T3, cellular Mcl-1 protein (2LMP cell lysate) (Homo sapiens, UniProt Q07820); assay: Biotin-streptavidin pull-down with biotin-labeled Noxa BH3 peptide; type: binding
# T3 construct: endogenous in cells; host or cells: 2LMP (subclone of MDA-MB-231) cell lysate
# T3 sequence (Q07820 whole entry): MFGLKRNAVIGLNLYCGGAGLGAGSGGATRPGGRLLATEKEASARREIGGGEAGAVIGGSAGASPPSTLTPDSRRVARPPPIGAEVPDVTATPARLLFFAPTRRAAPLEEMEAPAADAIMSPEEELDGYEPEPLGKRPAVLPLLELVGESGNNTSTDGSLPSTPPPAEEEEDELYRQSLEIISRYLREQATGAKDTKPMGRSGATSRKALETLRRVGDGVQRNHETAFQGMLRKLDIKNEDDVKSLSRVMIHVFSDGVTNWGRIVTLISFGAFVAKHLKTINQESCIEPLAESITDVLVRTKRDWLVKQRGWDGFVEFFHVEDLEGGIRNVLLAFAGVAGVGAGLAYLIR
# Description: Human breast cancer 2LMP cells, a subclone of the MDA-MB-231 cell line, were lysed in CHAPS buffer (10 mM HEPES (pH 7.4), 2.5 mM EDTA, 150 mM NaCl, 1.0% CHAP). Pre-cleared cell lysates were incubated with different concentrations of tested compounds, followed by incubation with biotinylated Noxa BH3 peptide (residues 18-43) and streptavidin-agarose beads to pull-down Mcl-1 protein bound to Noxa peptide. Beads were washed with CHAPS buffer, and Mcl-1 protein was eluted by boiling in SDS-PAGE sample buffer and analyzed by Western blotting using Mcl-1 antibody (Santa Cruz). DMSO alone was used as a control for nonspecific pull-down.
# Bcl-xL = Bcl-xL (Homo sapiens, UniProt Q07817, DEL45-85); assay: FP-based binding assay, Bcl-xL
# Chain of Bcl-xL (Q07817 other isoform, or with tags, fused parts or gaps DEL45-85): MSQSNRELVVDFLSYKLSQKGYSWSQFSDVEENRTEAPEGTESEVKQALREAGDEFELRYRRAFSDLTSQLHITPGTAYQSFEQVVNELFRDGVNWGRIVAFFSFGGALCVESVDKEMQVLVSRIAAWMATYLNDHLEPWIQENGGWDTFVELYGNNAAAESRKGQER
# [5] = system: activated Bax in BxPC-3 cells; assay: Bax activation, 6A7 anti-Bax immunostaining, BxPC-3; type: cell-based, human; conditions: 24 h
# Description: as §1
# [6] = system: patient bone marrow derived plasma cells; assay: Apoptosis (Annexin V-FITC/PI), multiple myeloma patient cells; type: cell-based, human
# Description: Blood or bone marrow samples from multiple myeloma patients was obtained from treated or untreated patients after informed consent. Plasma cells were obtained after gradient density centrifugation using Ficoll Hypaque. Some samples were purified for […] population using flow cytometry. In all cases, purity of the plasma cells was higher than 90%, as assessed by morphology.
# MM cell lines were cultured in six-well plates and treated as described above. At the end of the treatment the cells were washed and resuspended in annexin binding buffer (10 mM 4-(2-hydroxyethyl)-1-piperazineethanesulfonic acid pH 7.4, 140 mM NaCl, 2.5 mM CaCl2) after which Annexin V-FITC and Propodium Iodide solution was added (5 micro L each) according to manufactures protocol (BD Bioscences). Flow cytometry was performed using a FACSCanto (BD Biosciences, San Jose, Calif., USA).
# [7] = system: cytochrome c and Smac release in Panc-1 cells; assay: Release of cytochrome c and Smac from mitochondria (Western blot); type: cell-based, human; conditions: 24 h treatment
# Description: The cells were treated and harvested at the indicated time points after treatment. Total cell lysates were subjected to electrophoresis onto SDS-containing 4-20% polyacrylamide gels (Invitrogen), and transferred to polyvinylidene difluoride (PVDF) membranes (Thermo Scientific). Following blocking in 5% milk, membranes were incubated with a specific primary antibody, washed, and incubated with horseradish peroxidase linked secondary antibody (Santa Cruz). The signals were visualized with the chemiluminescent horseradish peroxidase antibody detection reagent (Roche Molecular Biochemicals). Primary antibodies included: caspase-3 (Enzo Life Sciences), Mcl-1 and actin (Santa Cruz), Bcl-xL (BD Transduction Laboratories); Bcl-2, Bax, pro-PARP and cytochrome-c (Cell Signaling), Bak (Calbiochem), and Smac (Abgent).
# [8] = target: T4, Mcl-1/Bax and Mcl-1/Bak complexes in BxPC-3 cells (Homo sapiens, UniProt Q07820); assay: Immunoprecipitation with Mcl-1 antibody, BxPC-3; type: cell-based; conditions: 4 μM, 24 h
# T4 construct: endogenous in cells; host or cells: BxPC-3
# T4 sequence (Q07820 whole entry, one chain of several): as the sequence (Q07820 whole entry) above
# Description: Cell lysate (500 μg) were subjected to immunoprecipitation by adding 2.5-5 μg of anti-Mcl-1 antibody and incubation overnight at 4° C. After adding 30 μl of Protein G-agarose (Immunoprecipitation Kit, Sigma) and incubation for 4 h, the samples were centrifuged. The agarose pellet was then washed 7 times, resuspended in Laemmli buffer (Santa Cruz), and boiled for 5 min. Boiled samples were centrifuged, and supernatant was used for Western blot analysis.
# A1/Bfl-1 = target: T5, A1/Bfl-1 (Homo sapiens, UniProt Q16548); assay: FP-based binding assay, A1/Bfl-1
# T5 sequence (Q16548 1-151): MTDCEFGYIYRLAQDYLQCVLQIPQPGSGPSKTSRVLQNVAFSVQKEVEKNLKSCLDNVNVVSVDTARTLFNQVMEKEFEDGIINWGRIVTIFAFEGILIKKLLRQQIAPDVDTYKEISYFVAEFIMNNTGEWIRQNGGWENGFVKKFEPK
# Panc-1 cells = assay: Induction of apoptosis, Annexin V/PI, Panc-1; type: cell-based, human
# Description: An Annexin-V-FLUOS/Propidium iodide staining kit and ELISA detection kit (Roche Applied Science) were used to detect apoptosis in PC cells. Cells were treated with Mcl-1 inhibitors for different time points, harvested, washed with PBS and apoptosis was quantified according to manufacturer's protocol.
compound,measurement,setting,value
"O=C(O)CSc1cc(NS(=O)(=O)c2ccc(Br)cc2)c2ccccc2c1O [Compound 9, 2-((4-(4-Bromophenylsulfonamido)-1-hydroxynaphthalen-2-yl)thio)acetic acid]",IC50,MiaPaCa-2,12.5 ± 1.01 µM
same,tumor growth inhibition,BxPC-3 xenograft; day 19 (p<0.0001),65%
same,tumor growth inhibition,BxPC-3 xenograft; day 22 (p<0.003),56%
same,concentration from which activated Bax increases,[1],≥ 5 µM
same,fold lower affinity to Bcl-2 than to Mcl-1 (selectivity),Bcl-2 [2],more than 50 fold
same,Ki,Bcl-2 [3],23.8 ± 1.81 µM
same,fold lower affinity to Bcl-w than to Mcl-1 (selectivity),Bcl-w,17 fold
same,Ki,"Bcl-w; competitive FP, FAM-BID 2 nM, protein 40 nM, read-out: Bcl-w Ki ± SD",8.19 ± 1.9 µM
same,concentration from which BL-Noxa/cellular Mcl-1 interaction is blocked,[4],≥ 10 µM
same,"disruption of BL-Noxa/cellular Mcl-1 interaction, result in words",[4],effectively disrupted
same,fold lower affinity to Bcl-xL than to Mcl-1 (selectivity),Bcl-xL,more than 50 fold
same,Ki,Bcl-xL; read-out: Bcl-xL Ki ± SD,33 ± 4.33 µM
same,concentration from which activated Bax increases,[5],≥ 5 µM
same,"apoptotic cells, early event","[6]; Pt 90620372, treated",10.1%
same,"apoptotic cells, late event","[6]; Pt 90620372, treated",19.8%
same,"apoptotic cells, early events","[6]; Pt 957034714, treated",32.9%
same,"apoptotic cells, late events","[6]; Pt 957034714, treated",62.9%
same,"apoptotic cells, early events","[6]; Pt 957060476, treated",13.3%
same,"apoptotic cells, late events","[6]; Pt 957060476, treated",26.6%
same,concentration from which cytochrome c and Smac are released,[7],≥ 10 µM
same,inhibition of endogenous interactions of Bax and Bak with Mcl-1,[8],complete inhibition
same,fold lower affinity to A1/Bfl-1 than to Mcl-1 (selectivity),A1/Bfl-1,11 fold
same,Ki,A1/Bfl-1; read-out: A1/Bfl-1 Ki ± SD,5.33 ± 1 µM
same,early apoptotic cells,"Panc-1 cells; 5 μM, 24 hours",15%
same,early apoptotic cells,"Panc-1 cells; 5 μM, 48 hours",21%
same,early apoptotic cells,"Panc-1 cells; 10 μM, 24 hours",21%
same,early apoptotic cells,"Panc-1 cells; 10 μM, 48 hours",49%
